Experimental data from patent US20240067603A1, “CUBANYL BIGUANIDE COMPOUNDS” (REGENTS OF THE UNIVERSITY OF MINNESOTA, priority 2020, published 2024).

Legend:
CYP3A4 = CYP3A4 (Homo sapiens, UniProt P08684); test: Stability with recombinant human CYP3A4; assay type: in vitro ADME; set-up: purchased Corning; host or cells: insect cells (microsomes)
Procedure: Stability of HCB with recombinant human CYP3A4 and CYP2C8 enzymes was evaluated. 10 μM HCB was tested wich CYP3A4 and 2C8 (200 pmol/L) (Table 8). NADPH (2 mM) was added as a cofactor. Total volume was 200 μL.
HCB was incubated for 0, 30, or 60 min at 37° C. Incubations were quenched with 2 volumes of acetonitrile followed by centrifugation for 10 min at 16,000 g.

mm001 = test: Oxygen consumption rate (OCR), mm001; assay type: cell-based, mouse (C57BL/6)
Procedure: Measurement of oxygen consumption rate (OCR). Cells were maintained in growth medium consisting of 10% FBS at 37° C. with 5% CO2 and seeded at 25,000 cells per well in a 96-well XF96 cell culture microplates (Agilent, Santa Clara, CA). An 96 well XF sensor cartridge was hydrated and equilibrated with 200 ul calibrant in each well at 37° C. without CO2 overnight. Growth media was replaced with 150 μL DMEM based assay media (a non-buffered medium including 2 mM L-glutamine but no sodium bicarbonate (buffering agent), glucose, or sodium pyruvate, Agilent, Santa Clara, CA) the next day and cells were incubated CO2 free for 1 hour before the measurement of OCR by a Seahorse XFe Extracellular Flux Analyzer (Agilent, Santa Clara, CA), which measures uptake and excretion of metabolic end products in real time. After baseline measurements, 20 μl assay medium containing control vehicle or drugs were injected into corresponding wells. OCRs were measured periodically and can be reported in pmoles/minute or normalized against baseline measurements before treatment.

[1] = Toxicity / tolerance of dosing in mice; assay type: in vivo
Procedure: Study 1 was performed by dose escalation of SC HBB from 4 mg/kg qd to 12 mg/kg qd with female CD-1 mice (Envigo) approximately 4-8 weeks of age. N=5 mice per HBB dose group, n=10 naïve control mice.
Study 2 two was performed by dose escalation of SC HBB from 16 mg/kg qd to 24 mg/kg qd with female BALB/c mice (Envigo) approximately 6-8 weeks of age. N=4 mice per HBB dose group, n=3 naïve control mice
Study 3 was performed by dose escalation of SC HBB from 16 mg/kg qd to 24 mg/kg qd with female C57BL/6 mice (CR) approximately 6-8 weeks of age. N=12 for HBB dose group, n=3 naïve control mice.

Sequence of CYP3A4 (P08684 whole entry): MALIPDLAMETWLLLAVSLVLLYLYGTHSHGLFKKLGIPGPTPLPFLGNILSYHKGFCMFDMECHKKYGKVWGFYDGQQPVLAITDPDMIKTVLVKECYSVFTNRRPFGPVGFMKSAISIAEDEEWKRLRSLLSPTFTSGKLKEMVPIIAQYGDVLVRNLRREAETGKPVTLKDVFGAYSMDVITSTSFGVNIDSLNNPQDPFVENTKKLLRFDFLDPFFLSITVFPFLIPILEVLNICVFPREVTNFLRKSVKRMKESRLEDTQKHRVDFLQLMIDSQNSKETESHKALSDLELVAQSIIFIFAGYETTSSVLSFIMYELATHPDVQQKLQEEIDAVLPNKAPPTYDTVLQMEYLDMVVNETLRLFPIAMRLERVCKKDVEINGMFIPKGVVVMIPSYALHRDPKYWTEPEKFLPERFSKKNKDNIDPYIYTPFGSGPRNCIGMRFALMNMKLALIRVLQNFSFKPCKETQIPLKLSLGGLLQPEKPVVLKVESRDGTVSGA

| SMILES | parent metabolite peak area after 60 min (CYP3A4; 10 μM HCB, recombinant human CYP3A4, NADPH 2 mM) | degradation pathways (CYP3A4; recombinant human CYP3A4 and CYP2C8) | OCR Inhibition [HCB] (uM) v vs. control (P < 0.05) (mm001) | tolerance of daily SC dosing above 12 mg/kg ([1]; SC 16 to 24 mg/kg qd, female BALB/c mice, FIG. 21) | tolerance of dose escalation ([1]; daily SC 4 to 12 mg/kg over approximately 2 months, female CD-1 mice, FIG. 20) | MTD ([1]; female, CD-1 (Study 1), BALB/c (Study 2), C57BL/6 (Study 3), mouse, in vivo, sc, daily) | effect on splenic or lymph node CD4 or CD8 T cells ([1]; mice) | toxicity in mice ([1]; mouse, in vivo) | MTD ([1]; mouse, in vivo, ip, 4 times per week, no more than 2 consecutive days) | tolerance of daily SC dosing ([1]; study day 3 to day 26, female C57BL/6 mice, FIG. 22) |
| --- | --- | --- | --- | --- | --- | --- | --- | --- | --- | --- |
| CCCCCCNC(=N)NC(=N)NCC12C3C4C5C3C1C5C42 (stereo not shown) [HCB, Hexyl Cubanomethyl Biguanide] | 93.91% | oxidation, dealkylation, and hydrogenation | 10 µM |  |  |  |  |  |  |  |
| CCCCCCNC(=N)NC(=N)NCc1ccccc1 [HBB, N1-hexyl-N5-benzyl-biguanide] |  |  |  | not as well tolerated | well tolerated | 12 mg/kg | no observed effect | acceptable toxicity | 6 mg/kg | well tolerated |
